# In patent publication US11274101B2, “Heterocyclic compound” (Takeda Pharmaceutical Company Limited, priority 2017, dated 2022):
# Biological target: T1, His-hMAGL (recombinant polyhistidine tagged human MAGL protein) (Homo sapiens, UniProt Q99685)
# T1 construct: made in house; host or cells: E. coli BL21(DE3)
# T1 sequence (Q99685 1-303): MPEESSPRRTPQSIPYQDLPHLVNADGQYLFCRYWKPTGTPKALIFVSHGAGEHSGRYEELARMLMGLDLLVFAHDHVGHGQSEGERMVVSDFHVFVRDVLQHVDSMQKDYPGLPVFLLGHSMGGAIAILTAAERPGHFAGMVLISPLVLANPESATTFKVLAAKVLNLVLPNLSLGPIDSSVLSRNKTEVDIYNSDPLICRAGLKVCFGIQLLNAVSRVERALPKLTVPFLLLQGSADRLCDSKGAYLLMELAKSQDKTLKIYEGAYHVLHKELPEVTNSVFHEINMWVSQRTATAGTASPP
# Experiment: Measurement of MAGL inhibitory activity (arachidonic acid production from 2-arachidonylglycerol, RapidFire-mass spectrometry)
# Type: biochemical
# Conditions: test compound 10 μM; MAGL inhibitory rate
# Experimental: The His-hMAGL obtained above was diluted with enzyme reaction buffer (10 mM Tris-HCl, pH 7.5, 1 mM EDTA, 0.025 (w/v) % Triton X-100, 0.01% Bovine serum albumin) to a concentration of 7.5 ng/mL. To each well of a 384 well assay plate (Greiner 781280) was added a solution (5 μL) of a test compound dissolved in dimethyl sulfoxide (DMSO), which was diluted with the above-mentioned enzyme reaction buffer, then His-hMAGL solution (5 μL) diluted to a concentration of 7.5 ng/mL was added, and the mixture was incubated at room temperature for 60 min. Thereafter, to each well was added 5 μL of 150 μM 2-arachidonylglycerol (Tocris Bioscience), and the mixture was incubated at room temperature for 10 min. Then, 10 μL of 2% formic acid (Wako Pure Chemical Industries, Ltd.) was added to stop the reaction. Furthermore, acetonitrile (50 μL) containing 3 μM arachidonic acid-d8 (Cayman Chemical Company) was added and the mixture was stirred.
# The amount of arachidonic acid in the obtained enzyme reaction mixture was calculated by measuring by RapidFire-mass spectrometry and correcting by the amount of arachidonic acid-d8. High Throughput online solid phase extraction was performed using RapidFire 300™ system (Agilent Technologies, Inc.). Samples were loaded on SPE C4 cartridge (Agilent Technologies, Inc.) and desalted with 0.2 (v/v) % acetic acid (Wako Pure Chemical Industries, Ltd.) in ultrapure water/acetonitrile (70/30, v/v) at a flow rate of 1.5 mL/min, eluted at a flow rate of 0.5 mL/min with 0.2 (v/v) % acetic acid dissolved in acetonitrile/ultrapure water (90/10, v/v), and injected into the mass spectrometry part. The injection needle was washed with ultrapure water (500 millisecond) and acetonitrile (500 millisecond) to minimize carry-over. The suction time (injection loop 5 μL), load/cleansing time, elution time and re-equilibration time were adjusted to 300, 3000, 4250 and 1000 milliseconds, respectively, and the total cycle time was adjusted to about 10.0 seconds. The RapidFire300 system was controlled by RapidFire UI software version 3.6 (Agilent Technologies, Inc.).
# The mass spectrometry of the resultant product was performed using API4000™ triple quadrupole mass spectrometer (AB SCIEX) equipped with an electrospray ion sauce (TurboIon Spray™) in a negative selected reaction monitoring (SRM) mode. The conditions of SRM are shown below. The parameters of the instrument were optimized as follows: capillary temperature 600° C., ion spray voltage −4.5 kV, collision gas 8, curtain gas 15 psi, ion source gas 1 60 psi, ion source gas 2 60 psi. The mass spectrometer was controlled by Analyst™ software version 1.5.1 (AB SCIEX). The peak area integration was analyzed using RapidFire integrator software version 3.6 (Agilent Technologies, Inc.).
# MAGL inhibitory rate (%) was calculated according to the following calculation formula. (1-(arachidonic acid production amount of test compound addition group−arachidonic acid production amount of enzyme-free group)+(arachidonic acid production amount of test compound-free group−arachidonic acid production amount of enzyme-free group))×100
row,inhibition at 10 µM [%],SMILES
1,100,"O=C1NC2(CO1)CN(C(=O)O[C@H]1C[C@H](Oc3ccc(F)c(F)c3F)C1)C2 [Example 39, trans-3-(2,3,4-trifluorophenoxy)cyclobutyl 6-oxo-7-oxa-2,5-diazaspiro[3.4]octane-2-carboxylate]"
2,99,"O=C1NC2(CO1)CN(C(=O)O[C@H]1C[C@@H](Oc3ccc(F)c(F)c3F)C1)C2 [Example 51, cis-3-(2,3,4-trifluorophenoxy)cyclobutyl 6-oxo-7-oxa-2,5-diazaspiro[3.4]octane-2-carboxylate]"
3,99,"O=C1NC2(CO1)CN(C(=O)O[C@H]1C[C@@H](OCc3ccc(C(F)(F)F)cc3F)C1)C2 [Example 10, cis-3-((2-fluoro-4-(trifluoromethyl)benzyl)oxy)cyclobutyl 6-oxo-7-oxa-2,5-diazaspiro[3.4]octane-2-carboxylate]"
4,100,"O=C1NC2(CO1)CN(C(=O)O[C@H]1C[C@@H](OCc3ccc(F)cc3F)C1)C2 [Example 40, cis-3-((2,4-difluorobenzyl)oxy)cyclobutyl 6-oxo-7-oxa-2,5-diazaspiro[3.4]octane-2-carboxylate]"
5,100,"O=C1NC2(CO1)CN(C(=O)O[C@H]1C[C@@H](OCc3cc(F)c(F)cc3F)C1)C2 [Example 7, cis-3-((2,4,5-trifluorobenzyl)oxy)cyclobutyl 6-oxo-7-oxa-2,5-diazaspiro[3.4]octane-2-carboxylate]"
6,99,"O=C1NC2(CO1)CN(C(=O)O[C@H]1C[C@@H](OCc3ccc(F)c(F)c3)C1)C2 [Example 41, cis-3-((3,4-difluorobenzyl)oxy)cyclobutyl 6-oxo-7-oxa-2,5-diazaspiro[3.4]octane-2-carboxylate]"
7,101,"O=C1NC2(CO1)CN(C(=O)O[C@H]1C[C@@H](OCc3ccc(F)c(F)c3F)C1)C2 [Example 6, cis-3-((2,3,4-trifluorobenzyl)oxy)cyclobutyl 6-oxo-7-oxa-2,5-diazaspiro[3.4]octane-2-carboxylate]"
8,99,"Cc1ccc(CO[C@H]2C[C@@H](OC(=O)N3CC4(COC(=O)N4)C3)C2)c(F)c1F [Example 5, cis-3-((2,3-difluoro-4-methylbenzyl)oxy)cyclobutyl 6-oxo-7-oxa-2,5-diazaspiro[3.4]octane-2-carboxylate]"

# Further lines, the molecule ahead of its results:
row,SMILES,inhibition at 10 µM [%]
1,"Cc1cc(F)ccc1O[C@H]1C[C@@H](OC(=O)N2CC3(COC(=O)N3)C2)C1 [Example 55, cis-3-(4-fluoro-2-methylphenoxy)cyclobutyl 6-oxo-7-oxa-2,5-diazaspiro[3.4]octane-2-carboxylate]",100
2,"Cc1ccc(O[C@H]2C[C@@H](OC(=O)N3CC4(COC(=O)N4)C3)C2)cc1F [Example 45, cis-3-(3-fluoro-4-methylphenoxy)cyclobutyl 6-oxo-7-oxa-2,5-diazaspiro[3.4]octane-2-carboxylate]",98
3,"O=C1NC2(CO1)CN(C(=O)OC[C@H]1C[C@@H](Oc3ccc(C(F)(F)F)cc3Cl)C1)C2 [Example 26, (cis-3-(2-chloro-4-(trifluoromethyl)phenoxy)cyclobutyl)methyl 6-oxo-7-oxa-2,5-diazaspiro[3.4]octane-2-carboxylate]",100
4,"O=C1NC2(CO1)CN(C(=O)O[C@H]1C[C@H](Oc3ccc(C(F)(F)F)cc3F)C1)C2 [Example 34, trans-3-(2-fluoro-4-(trifluoromethyl)phenoxy)cyclobutyl 6-oxo-7-oxa-2,5-diazaspiro[3.4]octane-2-carboxylate]",99
5,"O=C1NC2(CO1)CN(C(=O)O[C@H]1C[C@@H](COc3ccc(C(F)(F)F)cc3F)C1)C2 [Example 19, cis-3-((2-fluoro-4-(trifluoromethyl)phenoxy)methyl)cyclobutyl 6-oxo-7-oxa-2,5-diazaspiro[3.4]octane-2-carboxylate]",98
6,"C[C@]1(OC(=O)N2CC3(COC(=O)N3)C2)C[C@H](OCc2ccccc2)C1 [Example 59, trans-3-(benzyloxy)-1-methylcyclobutyl 6-oxo-7-oxa-2,5-diazaspiro[3.4]octane-2-carboxylate]",99
7,"C[C@]1(OC(=O)N2CC3(COC(=O)N3)C2)C[C@@H](OCc2ccccc2)C1 [Example 58, cis-3-(benzyloxy)-1-methylcyclobutyl 6-oxo-7-oxa-2,5-diazaspiro[3.4]octane-2-carboxylate]",93
8,"O=C1NC2(CO1)CN(C(=O)OC[C@H]1C[C@@H](Oc3ccc(C(F)(F)F)cc3F)C1)C2 [Example 24, (cis-3-(2-fluoro-4-(trifluoromethyl)phenoxy)cyclobutyl)methyl 6-oxo-7-oxa-2,5-diazaspiro[3.4]octane-2-carboxylate]",103
9,"O=C1NC2(CO1)CN(C(=O)O[C@H]1C[C@@H](COc3ccc(Cl)cc3F)C1)C2 [Example 15, cis-3-((4-chloro-2-fluorophenoxy)methyl)cyclobutyl 6-oxo-7-oxa-2,5-diazaspiro[3.4]octane-2-carboxylate]",103
10,"Cc1cc(O[C@H]2C[C@@H](OC(=O)N3CC4(COC(=O)N4)C3)C2)ccc1F [Example 50, cis-3-(4-fluoro-3-methylphenoxy)cyclobutyl 6-oxo-7-oxa-2,5-diazaspiro[3.4]octane-2-carboxylate]",99
11,"O=C1NC2(CO1)CN(C(=O)O[C@H]1C[C@@H](COCc3cc(F)c(F)cc3F)C1)C2 [Example 32, cis-3-(((2,4,5-trifluorobenzyl)oxy)methyl)cyclobutyl 6-oxo-7-oxa-2,5-diazaspiro [3.4]octane-2-carboxylate]",100
12,"Cc1cc(CO[C@H]2C[C@@H](OC(=O)N3CC4(COC(=O)N4)C3)C2)ccc1Cl [Example 4, cis-3-((4-chloro-3-methylbenzyl)oxy)cyclobutyl 6-oxo-7-oxa-2,5-diazaspiro[3.4]octane-2-carboxylate]",100
13,"O=C1NC2(CO1)CN(C(=O)O[C@H]1C[C@@H](COc3ccc(C(F)(F)F)cc3Cl)C1)C2 [Example 20, cis-3-((2-chloro-4-(trifluoromethyl)phenoxy)methyl)cyclobutyl 6-oxo-7-oxa-2,5-diazaspiro[3.4]octane-2-carboxylate]",100
14,"O=C1NC2(CO1)CN(C(=O)O[C@H]1C[C@@H](Oc3cc(F)c(F)cc3F)C1)C2 [Example 57, cis-3-(2,4,5-trifluorophenoxy)cyclobutyl 6-oxo-7-oxa-2,5-diazaspiro[3.4]octane-2-carboxylate]",100
15,"O=C1NC2(CO1)CN(C(=O)O[C@H]1C[C@@H](Oc3ccc(Cl)cc3)C1)C2 [Example 47, cis-3-(4-chlorophenoxy)cyclobutyl 6-oxo-7-oxa-2,5-diazaspiro[3.4]octane-2-carboxylate]",100
16,"O=C1NC2(CO1)CN(C(=O)O[C@H]1C[C@@H](Oc3ccc(C(F)(F)F)cc3F)C1)C2 [Example 1, cis-3-(2-fluoro-4-(trifluoromethyl)phenoxy)cyclobutyl 6-oxo-7-oxa-2,5-diazaspiro[3.4]octane-2-carboxylate]",100
17,"C[C@]1(OC(=O)N2CC3(COC(=O)N3)C2)C[C@@H](Oc2c(F)cc(F)cc2F)C1 [Example 60, cis-1-methyl-3-(2,4,6-trifluorophenoxy)cyclobutyl 6-oxo-7-oxa-2,5-diazaspiro[3.4]octane-2-carboxylate]",98
18,"O=C1NC2(CO1)CN(C(=O)O[C@H]1C[C@@H](Oc3ccccc3Cl)C1)C2 [Example 52, cis-3-(2-chlorophenoxy)cyclobutyl 6-oxo-7-oxa-2,5-diazaspiro[3.4]octane-2-carboxylate]",100
